Several values for one entry are separate records, joined by “and”; a condition that tells them apart may be missing. Equal values may be shown once. Toxic doses and inconclusive results are not listed.
Tested on: P388 leukemia ip, CD2F1 mice, survival T/C
Experiment: NCI In Vivo Anticancer Drug Screen. Data for tumor model P388 Leukemia (intraperitoneal) in CD2F1 (CDF1) mice
Conditions: endpoint: median survival time, higher = longer survival
Outline: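 Mice carrying the transplanted tumor received test compound or vehicle. Survival was recorded in each group, and the value is the treated-group measurement divided by that of the vehicle-treated control group.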

[1] = dose: 7.5 mg/kg/injection, schedule: Q01DX005 (ip), vehicle: saline with Tween-80
[2] = dose: 50.0 mg/kg/injection, schedule: Q01DX009 (ip), vehicle: saline with Tween-80
[3] = dose: 100.0 mg/kg/injection, schedule: Q01DX009 (ip), vehicle: saline with Tween-80
[4] = dose: 200.0 mg/kg/injection, schedule: Q01DX009 (ip), vehicle: saline with Tween-80
[5] = dose: 6.25 mg/kg/injection, schedule: Q01DX009 (ip), vehicle: saline with Tween-80
[6] = dose: 12.5 mg/kg/injection, schedule: Q01DX009 (ip), vehicle: saline with Tween-80
[7] = dose: 100.0 mg/kg/injection, schedule: Q01DX009 (ip), vehicle: saline
[8] = dose: 200.0 mg/kg/injection, schedule: Q01DX009 (ip), vehicle: saline
[9] = dose: 60.0 mg/kg/injection, schedule: Q01DX005 (ip), vehicle: saline with Tween-80
[10] = dose: 120.0 mg/kg/injection, schedule: Q01DX005 (ip), vehicle: saline with Tween-80

Question: What does the source list for Cc1oc(N)c(C#N)c1C?
Answer: T/C (dose: 100.0 mg/kg/injection, schedule: Q01DX009 (ip), vehicle: saline sonified): 110 % of control; T/C (dose: 200.0 mg/kg/injection, schedule: Q01DX009 (ip), vehicle: saline sonified): 115 % of control; T/C (dose: 400.0 mg/kg/injection, schedule: Q01DX009 (ip), vehicle: saline sonified): 120 % of control

Question: How did the T/C (dose: 100.0 mg/kg/injection, schedule: Q04DX002 (ip), vehicle: saline with Tween-80) turn out when C=Cn1c([N+](=O)[O-])cnc1/C=C/c1ccc(C(=O)NCCO)cc1 was run?
Answer: 96 % of control

Question: And the T/C (dose: 200.0 mg/kg/injection, schedule: Q04DX002 (ip), vehicle: saline with Tween-80)?
Answer: 93 % of control

Question: And the T/C (dose: 400.0 mg/kg/injection, schedule: Q04DX002 (ip), vehicle: saline with Tween-80)?
Answer: 93 % of control

Question: With CCC(O)C(O)(c1ccccc1)c1nc2ccccc2s1 (configuration not stated) as the compound, how does the T/C (dose: 50.0 mg/kg/injection, schedule: Q01DX005 (ip), vehicle: Klucel (hydroxypropylcellulose) (HPC)) read?
Answer: 102 % of control

Question: And the T/C (dose: 100.0 mg/kg/injection, schedule: Q01DX005 (ip), vehicle: Klucel (hydroxypropylcellulose) (HPC))?
Answer: 102 % of control

Question: What about the T/C (dose: 200.0 mg/kg/injection, schedule: Q01DX005 (ip), vehicle: Klucel (hydroxypropylcellulose) (HPC)) of the same compound?
Answer: 99 % of control

Question: Which results are given for CCCCCCCC/C=C/CC1CCCC(C)N1 (configuration not stated) (tested in a mixture with another compound)?
Answer: T/C [1]: 100 % of control; T/C (dose: 15.0 mg/kg/injection, schedule: Q01DX005 (ip), vehicle: saline with Tween-80): 100 % of control; T/C (dose: 30.0 mg/kg/injection, schedule: Q01DX005 (ip), vehicle: saline with Tween-80): 98 % of control and 102 % of control

Question: How did the T/C [2] turn out when NNC(=O)c1cccc(C(=O)NN)c1 was run?
Answer: 94 % of control

Question: And the T/C [3]?
Answer: 97 % of control

Question: What about the T/C [4] of the same compound?
Answer: 92 % of control

Question: What does the source list for O=C(CCl)N1c2ccccc2Sc2ccc(Cl)cc21?
Answer: T/C (dose: 3.13 mg/kg/injection, schedule: Q01DX009 (ip), vehicle: water): 117 % of control; T/C (dose: 6.25 mg/kg/injection, schedule: Q01DX009 (ip), vehicle: water): 117 % of control; T/C (dose: 12.5 mg/kg/injection, schedule: Q01DX009 (ip), vehicle: water): 111 % of control

Question: What does the source list for CC(=O)Oc1cccc2c1ccc1nonc12?
Answer: T/C (dose: 50.0 mg/kg/injection, schedule: Q01DX005 (ip), vehicle: saline with Tween-80): 88 % of control; T/C (dose: 100.0 mg/kg/injection, schedule: Q01DX005 (ip), vehicle: saline with Tween-80): 88 % of control; T/C (dose: 200.0 mg/kg/injection, schedule: Q01DX005 (ip), vehicle: saline with Tween-80): 88 % of control

Question: How did the T/C [5] turn out when O=C(Nc1ccc(-c2c[nH]c(=O)c([N+](=O)[O-])c2)cc1)OCc1ccccc1 was run?
Answer: 95 % of control

Question: What about the T/C [6] of the same compound?
Answer: 95 % of control

Question: With CN(C)C(=O)Oc1ccc(OC(=O)N(C)C)c2ccccc12 as the compound, how does the T/C (dose: 6.25 mg/kg/injection, schedule: Q01DX001 (ip), vehicle: Klucel (hydroxypropylcellulose) (HPC)) read?
Answer: 104 % of control

Question: What about the T/C (dose: 12.5 mg/kg/injection, schedule: Q01DX001 (ip), vehicle: Klucel (hydroxypropylcellulose) (HPC)) of the same compound?
Answer: 104 % of control

Question: And the T/C (dose: 25.0 mg/kg/injection, schedule: Q01DX001 (ip), vehicle: Klucel (hydroxypropylcellulose) (HPC))?
Answer: 99 % of control and 100 % of control

Question: How did the T/C [7] turn out when CC(C(C(=O)N1CCCCC1)N1CCCCC1)N1CCCCC1 (configuration not stated) was run?
Answer: 99 % of control

Question: What about the T/C [8] of the same compound?
Answer: 87 % of control

Question: And the T/C (dose: 400.0 mg/kg/injection, schedule: Q01DX009 (ip), vehicle: saline)?
Answer: 97 % of control

Question: What does the source list for c1ccc2c(NCCCCNc3c4ccccc4nc4ccccc34)c3ccccc3nc2c1?
Answer: T/C (dose: 0.62 mg/kg/injection, schedule: Q## X009 (ip), vehicle: lactic acid): 101 % of control; T/C (dose: 1.25 mg/kg/injection, schedule: Q## X009 (ip), vehicle: lactic acid): 102 % of control; T/C (dose: 2.5 mg/kg/injection, schedule: Q## X009 (ip), vehicle: lactic acid): 104 % of control; T/C (dose: 5.0 mg/kg/injection, schedule: Q## X009 (ip), vehicle: lactic acid): 104 % of control; T/C (dose: 10.0 mg/kg/injection, schedule: Q## X009 (ip), vehicle: lactic acid): 110 % of control

Question: How did the T/C [5] turn out when COc1ccc(/C=C2/SC(=S)N(Cc3ccco3)C2=O)cc1 was run?
Answer: 100 % of control

Question: And the T/C [6]?
Answer: 91 % of control

Question: And the T/C [4]?
Answer: 86 % of control

Question: For O=[N+]([O-])c1cc(S(=O)(=O)O)c2cccnc2c1O, which T/C (dose: 100.0 mg/kg/injection, schedule: Q04DX003 (ip), vehicle: saline) is on record?
Answer: 86 % of control

Question: What about the T/C (dose: 200.0 mg/kg/injection, schedule: Q04DX003 (ip), vehicle: saline) of the same compound?
Answer: 89 % of control

Question: And the T/C (dose: 400.0 mg/kg/injection, schedule: Q04DX003 (ip), vehicle: saline)?
Answer: 88 % of control

Question: With NCCCNCCCCNC(=O)C(O)NC(=O)CC(O)CCCCN=C(N)N (configuration not stated) as the compound, how does the T/C (dose: 6.25 mg/kg/injection, schedule: Q01DX005 (ip), vehicle: saline) read?
Answer: 152 % of control

Question: What about the T/C (dose: 25.0 mg/kg/injection, schedule: Q01DX005 (ip), vehicle: saline) of the same compound?
Answer: 160 % of control

Question: And the T/C (dose: 50.0 mg/kg/injection, schedule: Q01DX005 (ip), vehicle: saline)?
Answer: 150 % of control and 154 % of control

Question: And the T/C (dose: 100.0 mg/kg/injection, schedule: Q01DX005 (ip), vehicle: saline)?
Answer: 156 % of control and 169 % of control

Question: CCC[As](CCC)SCC1OC(OC(C)=O)C(OC(C)=O)C(OC(C)=O)C1OC(C)=O (configuration not stated) was tested. Which T/C [2] did it give?
Answer: 117 % of control

Question: And the T/C [3]?
Answer: 110 % of control

Question: What does the source list for CCOC(C)(c1ccc(Cl)cc1)C1CCNCC1 (configuration not stated)?
Answer: T/C [2]: 101 % of control; T/C [3]: 119 % of control

Question: What does the source list for CCN(CC)CCSc1nnc(-c2ccc3c(c2)OCO3)o1?
Answer: T/C (dose: 50.0 mg/kg/injection, schedule: Q04DX003 (ip), vehicle: water): 99 % of control; T/C (dose: 100.0 mg/kg/injection, schedule: Q04DX003 (ip), vehicle: water): 99 % of control; T/C (dose: 200.0 mg/kg/injection, schedule: Q04DX003 (ip), vehicle: water): 101 % of control

Question: Which results are given for OCc1nc(-c2ccccc2)sc1-c1cnc2ccccc2n1?
Answer: T/C (dose: 100.0 mg/kg/injection, schedule: Q04DX002 (ip), vehicle: Klucel (hydroxypropylcellulose) (HPC)): 104 % of control; T/C (dose: 200.0 mg/kg/injection, schedule: Q04DX002 (ip), vehicle: Klucel (hydroxypropylcellulose) (HPC)): 99 % of control; T/C (dose: 400.0 mg/kg/injection, schedule: Q04DX002 (ip), vehicle: Klucel (hydroxypropylcellulose) (HPC)): 101 % of control

Question: For O=[N+]([O-])c1cc(Cl)c(Cl)cc1NS(=O)(=O)c1ccccc1, which T/C (dose: 150.0 mg/kg/injection, schedule: Q01DX009 (ip), vehicle: saline with Tween-80) is on record?
Answer: 90 % of control

Question: What about the T/C (dose: 150.0 mg/kg/injection, schedule: Q04DX003 (ip), vehicle: saline with Tween-80) of the same compound?
Answer: 100 % of control

Question: What about the T/C (dose: 300.0 mg/kg/injection, schedule: Q01DX009 (ip), vehicle: saline with Tween-80) of the same compound?
Answer: 100 % of control

Question: What about the T/C (dose: 300.0 mg/kg/injection, schedule: Q04DX003 (ip), vehicle: saline with Tween-80) of the same compound?
Answer: 100 % of control

Question: And the T/C (dose: 600.0 mg/kg/injection, schedule: Q04DX003 (ip), vehicle: saline with Tween-80)?
Answer: 95 % of control

Question: Which T/C [9] does the source give for O=S(=O)(c1ccc(Cl)cc1)N(CCCCN(S(=O)(=O)c1ccc(Cl)cc1)S(=O)(=O)c1ccc(Cl)cc1)S(=O)(=O)c1ccc(Cl)cc1 here?
Answer: 99 % of control

Question: What about the T/C [10] of the same compound?
Answer: 93 % of control

Question: And the T/C (dose: 240.0 mg/kg/injection, schedule: Q01DX005 (ip), vehicle: saline with Tween-80)?
Answer: 90 % of control

Question: Which results are given for CN(C)C(=S)N1C(=O)C2C3CCC(O3)C2C1=O (configuration not stated)?
Answer: T/C (dose: 1.87 mg/kg/injection, schedule: Q01DX005 (ip), vehicle: saline with Tween-80): 102 % of control; T/C (dose: 3.75 mg/kg/injection, schedule: Q01DX005 (ip), vehicle: saline with Tween-80): 100 % of control; T/C [1]: 99 % of control and 98 % of control

Question: Which T/C [9] does the source give for N#Cc1nc(CC(=O)c2ccccn2)c(CC(=O)c2ccccn2)nc1C#N here?
Answer: 111 % of control

Question: What about the T/C [10] of the same compound?
Answer: 93 % of control

Question: Which results are given for COC1/C=C/OC2(C)Oc3c(C)c(O)c4c(O)c(c(/C=N/NC5C6CC7CC(C6)CC5C7)c(O)c4c3C2=O)NC(=O)/C(C)=C/C=C/C(C)C(O)C(C)C(O)C(C)C(OC(C)=O)C1C (configuration not stated)?
Answer: T/C [6]: 106 % of control; T/C (dose: 25.0 mg/kg/injection, schedule: Q01DX009 (ip), vehicle: saline with Tween-80): 109 % of control; T/C [2]: 113 % of control and 95 % of control

Question: With O=C1OC(c2ccc(Cl)cc2)Sc2ccccc21 (configuration not stated) as the compound, how does the T/C (dose: 25.0 mg/kg/injection, schedule: Q04DX003 (ip), vehicle: saline with Tween-80) read?
Answer: 102 % of control

Question: And the T/C (dose: 50.0 mg/kg/injection, schedule: Q04DX003 (ip), vehicle: saline with Tween-80)?
Answer: 93 % of control

Question: And the T/C (dose: 100.0 mg/kg/injection, schedule: Q04DX003 (ip), vehicle: saline with Tween-80)?
Answer: 102 % of control

Question: What about the T/C (dose: 200.0 mg/kg/injection, schedule: Q04DX003 (ip), vehicle: saline with Tween-80) of the same compound?
Answer: 100 % of control

Question: C1COCCN2CCOCCOCCN(CCO1)CCOCC2 was tested. Which T/C (dose: 50.0 mg/kg/injection, schedule: Q01DX009 (ip), vehicle: saline) did it give?
Answer: 109 % of control

Question: And the T/C [7]?
Answer: 106 % of control

Question: And the T/C [8]?
Answer: 107 % of control

Reference: PubChem BioAssay AID330 (DTP/NCI, 2004)
